{"source": "patent US12150933B2", "about": "“IL-8 inihibitors for use in the treatment of some urological disorders” (DOMPÉ FARMACEUTICI S.P.A., priority 2015, dated 2024)", "key": {"CXCR1/CXCR2": {"tested_on": "CXCR1/CXCR2", "details": "cited from earlier work"}, "[1]": {"tested_on": "CYP-induced visceral pain", "assay": "Acute administration in CYP-induced visceral pain in rats (Von Frey mechanical threshold)", "assay_type": "in vivo, rat", "details": "2 hours after administration, versus pre-treatment", "description": "Female Sprague Dawley rats (Crl:CD(SD)BR, 250-350 g) from Charles River Italy were used in these experiments. Animals were housed with free access to food and water and maintained on a forced 12 hours light-dark cycle at 22-24° C. for at least one week before the experiments were carried out. The animals were handled according to internationally accepted principles for care of laboratory animals (E.E.C. Council Directive 86/609, […]. 18, 1986). Cyclophosphamide, 75 mg/kg i.p. for 3 times, every 3rd day, was dissolved in distilled water and administered to animals by i.p. route (volume 5 mL/kg). Appropriate weight of Compd. 1 or Compd. 2 was dissolved in saline, all doses of test compounds were administered by oral gavage (volume 2 mL/kg). On the day of the experiment, each rat was placed individually in a clear plastic testing box with a grid floor and allowed to acclimatize for at least 10 min. Visceral sensitivity in response to mechanical stimuli was determined using Von Frey monofilaments (1-2-4-8-15-26-60-100 g) applied in the lower abdominal area (close to the urinary bladder) and on both hind paws plantar surface (to evaluate referred pain). Each Von Frey monofilament was applied 5 times at the level of abdomen and 3 times at the level of each paw, in an ascending order of strength at interval of 5 sec. A stimulus-induced response was considered positive when the paw was sharply withdrawn, paw licking occurred, or the animal flinched upon removal of the filament. Behavioral testing on animals was performed at 3 different times: • before CYP administration (in order to acquire basal values) • after CYP administration, before treatment with the test compound, to verify the pathology (in order to acquire pre-treatment values) • after CYP administration, after treatment (in order to acquire post-treatment values) […] The test was performed in blind. Compd. 1 and Compd. […]"}, "CYP-induced cystitis [2]": {"tested_on": "CYP-induced cystitis", "assay": "Cystometrographic recordings in conscious rats with CYP-induced cystitis", "assay_type": "in vivo, rat", "details": "24 hours after CYP 175 mg/kg i.p.", "description": "Female Sprague Dawley rats (Crl:CD(SD)BR, 250-350 g bw) from Charles River Italy were used in these experiments. Animals were housed with free access to food and water and maintained on a forced 12 hours light-dark cycle at 22-24° C. for at least one week before the experiments were carried out.\nRats, anaesthetized with equithensin solution (2 ml/kg i.p.), were placed in a supine position and an approximately 10 mm midline incision was made in the shaved and cleaned abdominal wall. The urinary bladder was gently freed from adhering tissues, emptied and then cannulated, via an incision at the dome, with a polyethylene cannula (Portex, ID 0.58 mm, OD 0.96 mm), which was permanently sutured with silk thread. The cannula was exteriorized through a subcutaneous tunnel in the retroscapular area, where it was connected with a plastic adapter, in order to avoid the risk of removal by the animal.\nFor drugs testing, rats were utilized one day after catheter implantation at about 24 hours after administrations CYP.\nOn the day of the experiment, the rats (fasted overnight) were placed in Bollman's cages; after a stabilization period of 20 min, the free tip of the cannula was connected by a T-shape tube to a pressure transducer and to a peristaltic pump for a continuous infusion of saline solution (room temperature) into the urinary bladder, at the constant rate of 0.05 ml/min. This procedure, termed cystometry, allows the detection of continuous cycles of filling and voiding of the bladder named cystometrograms.\nFrom the cystometrograms acquired by the Biopac System and recorded on a PC the Bladder Volume Capacity (BVC) parameter was calculated as volume capacity, defined as volume (in ml) infused into the bladder and necessary to induce detrusor contraction followed micturition.\nBasal BVC was evaluated as mean values from the cystometrograms recorded in 30-60 minutes of time prior the treatment (“BASAL”). Then the bladder infusion was stopped, the animals were treated orally with the test compound or vehicle and, after restarting continuous bladder filling with saline for 4 or 5 hours, BVC values after administration were collected.\nBVC parameters were recorded from the cystometrogram over a 4/5 hours period post-dose."}, "CYP-induced cystitis [3]": {"tested_on": "CYP-induced cystitis", "assay": "Microscopic examination of urinary bladders after chronic preventive administration", "assay_type": "in vivo, rat", "details": "preventive Mesna treatment", "text": "At the end of the study, the urinary bladders were opened, placed in 10% buffered formalin and stored at room temperature until completion of hystomorphological analysis (see Example 6 below).\nAt the end of the efficacy study of chronic preventive administration, the urinary bladders were opened, placed in 10% buffered formalin and stored at room temperature until hystomorphological analysis.\nTreatment with Compd. […] 1."}, "[4]": {"tested_on": "CYP-induced visceral pain", "assay": "Chronic preventive treatment in CYP-induced visceral pain model in rats; comparison with Mesna", "assay_type": "in vivo, rat", "details": "12.5 mg/kg i.p. several times a day for 3 days", "description": "The effect of chronic preventive administration of Compd. 1 in a visceral pain model induced by repeated administration of cyclophosphamide (CYP) in conscious rats was evaluated.\nThe oral dose of 7 mg/kg of Compd. 1 was chosen on the basis of previous evaluations. Compd. 1 or vehicle was orally administered to animals twice daily (according to the PK profile of the molecule) for 7 days. Mesna_or vehicle was intraperitoneally administered several times a day for 3 days (when CYP was administered).\nRepeated treatment with CYP (75 mg/kg i.p. for 3 times, every 3rd day), induced a strong decrease in withdrawal thresholds to noxious stimulus measured at the level of low abdomen and hind-paws. Nociceptive hypersensitivity was evaluated. In the control group, nociceptive thresholds of abdomen and hind-paws were not altered after the treatment with vehicle.\nBehavioral testing was performed at 4 different times: • before CYP administration (in order to acquire basal values) • after CYP administration and before treatment with the tested compound, to verify the pathology (in order to acquire pre-treatment values) • after treatment, 42 or 48 hours from the last administration of Compd. 1 or Mesna."}, "[5]": {"tested_on": "CYP-induced visceral pain", "assay": "Chronic administration in CYP-induced visceral pain in rats (Von Frey withdrawal threshold)", "assay_type": "in vivo, rat", "details": "40-80 mg/kg p.o., systemic", "description": "Cyclophosphamide, 75 mg/kg i.p. for 3 times, every 3rd day, was dissolved in distilled water and administered to animals by i.p. route (volume 5 mL/kg). Appropriate weight of Compd. 1 or Compd. 2 was dissolved in saline, all doses of test compounds were administered by oral gavage (volume 2 mL/kg).\nOn the day of the experiment, each rat was placed individually in a clear plastic testing box with a grid floor and allowed to acclimatize for at least 10 min. Visceral sensitivity in response to mechanical stimuli was determined using Von Frey monofilaments (1-2-4-8-15-26-60-100 g) applied in the lower abdominal area (close to the urinary bladder) and on both hind paws plantar surface (to evaluate referred pain).\nEach Von Frey monofilament was applied 5 times at the level of abdomen and 3 times at the level of each paw, in an ascending order of strength at interval of 5 sec. A stimulus-induced response was considered positive when the paw was sharply withdrawn, paw licking occurred, or the animal flinched upon removal of the filament.\n• before CYP administration (in order to acquire basal values) • after CYP administration and before treatment, to verify the pathology (in order to acquire pre-treatment values) • after chronic treatment, about 18 hours after last administration of Compd. 1 (in order to acquire post-treatment values). • after chronic treatment, 2 hours after the last administration of Compd. 1 (in order to acquire post-treatment values after chronic+acute administration)\nCompd. 1 or vehicle was administered p.o. to animals twice daily (according to the pharmacokinetic profile of the compound) for 6 days, starting from 24 hours after last treatment with CYP, when painful symptoms were well established. Nociceptive hypersensitivity was evaluated about 18 hours after the last administration of Compd. 1 (or vehicle) in order to evaluate the effect of chronic administration, or a further dosage of compound was administered and evaluation carried out 2 hours thereafter, in order to compare with acute protocol, described in Example 1."}}, "note": "Structures can show the parent of a compound that is named as a salt."}
{"smiles": "C[C@@H](C(=O)NS(C)(=O)=O)c1ccc(OS(=O)(=O)C(F)(F)F)cc1", "note": "[Compd. 2, R(−)-2-[(4′-trifluoromethanesulfonyloxy)phenyl]-N-methanesulfonyl propionamide]", "values": [{"measurement": "CXCR1/CXCR2 inhibition", "setting": "CXCR1/CXCR2", "value": "potent and selective dual CXCR1/CXCR2 non-competitive allosteric inhibitor"}, {"measurement": "mechanical threshold, abdomen and hind paws", "setting": "[1]; 10 mg/kg p.o.", "value": "statistically significant increase in mechanical threshold only in the abdomen"}, {"measurement": "mechanical threshold, abdomen and hind paws", "setting": "[1]; 30 mg/kg p.o.", "value": "statistically significant increase in mechanical threshold in both the abdomen and paws area"}, {"measurement": "bladder volume capacity (BVC)", "setting": "CYP-induced cystitis [2]; 20 mg/kg oral", "value": "showed efficacy on BVC"}, {"measurement": "bladder volume capacity (BVC)", "setting": "CYP-induced cystitis [2]; 30 mg/kg oral", "value": "showed efficacy on BVC"}]}
{"smiles": "O=S(=O)(O)CCS", "note": "[Mesna, 2-mercaptoethene sulfate, reference compound]", "values": [{"measurement": "protective effect on the CYP-induced cystitis", "setting": "CYP-induced cystitis [3]", "value": "did not exert any protective effect"}, {"measurement": "CYP-induced nociceptive behavior", "setting": "[4]", "value": "did not produce a reduction of CYP-induced nociceptive behavior"}]}
{"smiles": "NCC1(CC(=O)O)CCCCC1", "note": "[gabapentin, reference compound]", "values": [{"measurement": "antinociceptive effect", "setting": "[5]", "value": "partial maximum antinociceptive effect"}]}
